# Results as given in ChEMBL document CHEMBL1201862, “PubChem BioAssay data set” (2004).
#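 96-well plates; 48 h exposure; 5 concentrations. Endpoints by linear interpolation between flanking doses. Not reached: highest tested concentration assigned. The concentration for 50% growth inhibition is given as GI50.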 The source made the active and inactive calls. Cut-off read from the data, not from the text of the source: active = GI50 up to about 1.1 µM and inactive = higher.
# How the values were obtained:
# Experiment in all cases: growth of human tumour cells (NCI), 48 h
# HCT-116 = test system: HCT-116
# U-251 = test system: U-251
# OVCAR-5 = test system: OVCAR-5
# SR = test system: SR
# SN12C = test system: SN12C
# SF-295 = test system: SF-295
# UACC-62 = test system: UACC-62
# PC-3 = test system: PC-3
# TK-10 = test system: TK-10
# EKVX = test system: EKVX
# OVCAR-8 = test system: OVCAR-8
# HT-29 = test system: HT-29
# Hs-578T = test system: Hs-578T
# NCI-H522 = test system: NCI-H522
# NCI/ADR-RES = test system: NCI/ADR-RES
# OVCAR-4 = test system: OVCAR-4
# CCRF-CEM = test system: CCRF-CEM
# OVCAR-3 = test system: OVCAR-3
# HOP-92 = test system: HOP-92
# K562 = test system: K562
SMILES,GI50 (HCT-116),GI50 (U-251),GI50 (OVCAR-5),GI50 (SR),GI50 (SN12C),GI50 (SF-295),GI50 (UACC-62),GI50 (PC-3),GI50 (TK-10),GI50 (EKVX),GI50 (OVCAR-8),GI50 (HT-29),GI50 (Hs-578T),GI50 (NCI-H522),GI50 (NCI/ADR-RES),GI50 (OVCAR-4),GI50 (CCRF-CEM),GI50 (OVCAR-3),GI50 (HOP-92),GI50 (K562)
Cc1cccc(/N=N/c2c(C)nn(C(=O)CC(=O)Nc3ccc(Cl)cc3)c2C)c1,67.1 µM (inactive),61.5 µM (inactive),45.6 µM (inactive),20.8 µM (inactive),> 100 µM (inactive),> 100 µM (inactive),> 100 µM (inactive),69 µM (inactive),> 100 µM (inactive),13.4 µM (inactive),> 100 µM (inactive),> 100 µM (inactive),23.8 µM (inactive),53.3 µM (inactive),> 100 µM (inactive),> 100 µM (inactive),32.4 µM (inactive),82.4 µM (inactive),21 µM (inactive),
Cc1c(C)c2c(c(N)c1C#N)C(=O)N(CCN1CCNCC1)C2=O,16.1 µM (inactive),43.7 µM (inactive),31.1 µM (inactive),25.6 µM (inactive),32.5 µM (inactive),31.5 µM (inactive),23.2 µM (inactive),18.4 µM (inactive),36.7 µM (inactive),39 µM (inactive),30.8 µM (inactive),,28.8 µM (inactive),17.9 µM (inactive),33.4 µM (inactive),40.2 µM (inactive),33.4 µM (inactive),33.3 µM (inactive),25.2 µM (inactive),51.6 µM (inactive)
Clc1ccc(C(OCn2ccnc2)c2nc3ccccc3[nH]2)c(Cl)c1 (stereo not drawn),33.8 µM (inactive),31.4 µM (inactive),> 100 µM (inactive),> 10 µM (inactive),61.4 µM (inactive),29.6 µM (inactive),35 µM (inactive),35.2 µM (inactive),31.7 µM (inactive),66.2 µM (inactive),52.8 µM (inactive),53.3 µM (inactive),59.3 µM (inactive),43.1 µM (inactive),56.2 µM (inactive),16.6 µM (inactive),38.6 µM (inactive),23.5 µM (inactive),0.312 µM (active),45.7 µM (inactive)
Cc1n[nH]c(=O)n1/N=C/c1ccc([N+](=O)[O-])cc1,> 100 µM (inactive),> 100 µM (inactive),> 100 µM (inactive),> 100 µM (inactive),> 100 µM (inactive),> 100 µM (inactive),> 100 µM (inactive),> 100 µM (inactive),> 100 µM (inactive),60.7 µM (inactive),> 100 µM (inactive),> 100 µM (inactive),78 µM (inactive),> 100 µM (inactive),> 100 µM (inactive),> 100 µM (inactive),> 100 µM (inactive),> 100 µM (inactive),55.3 µM (inactive),> 100 µM (inactive)
